According to patent US20050065066A1, “Stabilised insulin compositions” (priority 2002, published 2005):
Like-named read-outs stand apart in the source and are kept apart here.

Assays:
[1] = target: T1, metal site of insulin R6 hexamers (Homo sapiens, UniProt P01308); test: TZD-assay: fluorescence based displacement assay; assay type: binding
T1 construct: human insulin comprising additional amino acids, i.e. more than 51 amino acids
Experimental: The binding affinity of ligands to the metal site of insulin R6 hexamers are measured in a fluorescense based displacement assay. The fluorescence of 5-(4-dimethylaminobenzylidene)thiazolidine-2,4-dione (TZD) which is a ligand for the metal site of insulin R6 is quenched upon displacement from the metal site to the solution. Titration of a ligand to a stock solution of insulin R6 hexamers with this compound mounted in the metal site allows the binding affinity of these ligands to be determined measuring the fluorescence at 455 nm upon excitation at 410 nm.
Stock solution: 0.02 mM human insulin, 0.007 mM Zn-acetate, 40 mM phenol, 0.01 mM TZD in 50 mM tris buffer adjusted to pH=8.0 with NaOH/ClO4^−.
The ligand is dissolved in DMSO to a concentration of 5 mM and added in aliquots to the stock solution to final concentrations of 0-250 µM.
Fluorescence measurements were carried out on a Perkin Elmer Spectrofluorometer LS50B. T main absorption band was excited at 410 nm and emission was detected at 455 nm. The resolution was 10 nm and 2.5 nm for excitation and emission, respectively.
This equation is fitted to the datapoints ΔF(455 nm))=ΔFmax* [ligand]free/(KD(app)*(1+[TZD]/KTZD)+[ligand]free)) KD(app) is the apparent dissociation constant and Fmax is the fluorescence at maximal ligand concentration. The value of KTZD is measured separately to 230 nM
Two different fitting-procedures can be used. One in which both parameters, KD(app) and Fmax, are adjusted to best fit the data and a second in which the value of Fmax is fixed (Fmax=1) and only KD(app) is adjusted. The given data are from the second fitting procedure. The Solver module of Microsoft Excel can be used to generate the fits from the data points.

[2] = Chemical stability of insulin formulations by SEC (size exclusion chromatography); assay type: physicochemical; settings: formulated human insulin, 3 Zn2+ per hexamer
Experimental: (§1) The chemical stability of insulin formulations of the invention was characterised by HPLC (RPC, reverse phase chromatography and SEC, size exclusion chromatography). As reference, insulin formulated without ligands of the invention but with 0.3% DMSO was also investigated and shown below: [drawing]
(§2) Storage in HPLC 1 ml vials at 45° C. (5 d), 37° C. (2 w), 30° C. (6 w), 25° C. (10 w), 15° C. (30 w) gave about the same increase of transformation products correlating to an increase in reactions constants of a factor 3-4 per 10 degree.
SEC (size exclusion chromatography) on Waters insulin HMWP column, 300×7.8 mm, eluted by 15:20:65 of acetic acid: acetonitrile: arginine 1 g/L at flow of 1 mL/min and ambient temperature.

[3] = Chemical stability of insulin formulations by RPC (reverse phase chromatography); assay type: physicochemical; settings: formulated human insulin, 3 Zn2+ per hexamer
Experimental: as §1
FIG. 10. Reverse phase chromatography of formulated human insulin with 3 Zn^2+ per hexamer, 30 mM phenol, 150 mM mannitol, 3 mM phosphoric acid, sodium hydroxide to pH 7.4 and 0.3% DMSO corresponding to 3 ligands per hexamer at start (upper panel) and after storage for 2 weeks at 37° C. (lower panel): Preservatives before 20 min., “hydrophilic derivatives” (desamido-insulins) 20 min to main top insulin, “hydrophobic derivatives 1” main top to 64 min., and “hydrophobic derivatives 2” (insulin dimers) after 64 min.
as §2
RPC (reverse phase chromatography) on Waters SymmetryShield RP8 column, 150×4.6 mm and 3.5 μm, eluted by A: 0.2 M sodium sulfate+0.04 M sodium phosphate pH 7.2+10% acetonitrile and isocratically (i) or a gradient (g) of B: 70% acetonitrile [minutes/% B(i/g): 0/19, 21/24(i)(sudden change), 51/24(i), 81/39(g), 81.1/0(i), 82.3/19(i)] at flow of 0.9 mL/min and 30° C.

[4] = affinity towards the zinc site, TZD-assay, read-out: Kd(app)

T1 sequence (P01308 25-54 limits assumed): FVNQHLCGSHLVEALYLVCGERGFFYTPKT
T1 sequence (P01308 90-110 limits assumed): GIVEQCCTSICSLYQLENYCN

c1ccc2[nH]nnc2c1 [Example 1]
Kd [1, 4]: 3.88 µM

CCN(CC)c1ccc(/C=C2\SC(=O)NC2=O)cc1 [Example 70, 5-(4-Diethylaminobenzylidene)thiazolidine-2,4-dione]
dimer ([2]; 5° predicted): (0.15) % formed/year | dimer ([2]; 15° C.): 0.69 % formed/year | dimer ([2]; 25° C.): 2.24 % formed/year | dimer ([2]; 30° C.): 3.55 % formed/year | dimer ([2]; 37° C.): 8.84 % formed/year | dimer ([2]; 45° C.): 29.2 % formed/year | hphil (hydrophilic derivatives, desamido-insulins) ([3]; 5° predicted): (0.54) % formed/year | hphob1 (hydrophobic derivatives 1) ([3]; 5° predicted): (0.22) % formed/year | hphob2 (hydrophobic derivatives 2, insulin dimers) ([3]; 5° predicted): (0.064) % formed/year | hphil (hydrophilic derivatives, desamido-insulins) ([3]; 15° C.): 1.95 % formed/year | hphob1 (hydrophobic derivatives 1) ([3]; 15° C.): 1.09 % formed/year | hphob2 (hydrophobic derivatives 2, insulin dimers) ([3]; 15° C.): 0.42 % formed/year | hphil (hydrophilic derivatives, desamido-insulins) ([3]; 25° C.): 6.08 % formed/year | hphob1 (hydrophobic derivatives 1) ([3]; 25° C.): 4.99 % formed/year | hphob2 (hydrophobic derivatives 2, insulin dimers) ([3]; 25° C.): 0.94 % formed/year | hphil (hydrophilic derivatives, desamido-insulins) ([3]; 30° C.): 12.1 % formed/year | hphob1 (hydrophobic derivatives 1) ([3]; 30° C.): 6.94 % formed/year | hphob2 (hydrophobic derivatives 2, insulin dimers) ([3]; 30° C.): 3.03 % formed/year | hphil (hydrophilic derivatives, desamido-insulins) ([3]; 37° C.): 23.7 % formed/year | hphob1 (hydrophobic derivatives 1) ([3]; 37° C.): 14.8 % formed/year | hphob2 (hydrophobic derivatives 2, insulin dimers) ([3]; 37° C.): 6.50 % formed/year | hphil (hydrophilic derivatives, desamido-insulins) ([3]; 45° C.): 56.2 % formed/year | hphob1 (hydrophobic derivatives 1) ([3]; 45° C.): 78.8 % formed/year | hphob2 (hydrophobic derivatives 2, insulin dimers) ([3]; 45° C.): 27.0 % formed/year

CCCCCOc1ccccc1/C=C1\SC(=O)NC1=O [Example 76, 5-(2-Pentyloxybenzylidene)thiazolidine-2,4-dione]
Kd [1, 4]: 0.082 µM

COc1cc(/C=C2\SC(=O)NC2=O)cc(I)c1O [Example 167, 5-(4-Hydroxy-3-iodo-5-methoxybenzylidene)thiazolidine-2,4-dione]
melting point: 256 °C

O=C1NC(=O)/C(=C/c2ccc3cc(O)ccc3c2)S1 [Example 171, 5-(6-Hydroxy-2-naphthylmethylene)thiazolidine-2,4-dione]
melting point: 310 to 314 °C

O=C1NC(=O)C(=Cc2c[nH]c3ccc([N+](=O)[O-])cc23)S1 [Example 199, 5-(5-Nitro-1H-indol-3-ylmethylene)thiazolidine-2,4-dione]
melting point: 330 to 333 °C

O=C1NC(=O)/C(=C/c2c(Cl)cccc2Cl)S1 [Example 229, 5-(2,6-Dichlorobenzylidene)thiazolidine-2,4-dione]
melting point: 152 to 154 °C

COc1cc(O)cc(OC)c1/C=C1\SC(=O)NC1=O [Example 234, 5-(4-Hydroxy-2,6-dimethoxybenzylidene)thiazolidine-2,4-dione]
melting point: 331 to 333 °C

Cc1cccc(C)c1/C=C1\SC(=O)NC1=O [Example 235, 5-(2,6-Dimethylbenzylidene)thiazolidine-2,4-dione]
melting point: 104 to 105 °C

COc1cccc(OC)c1/C=C1\SC(=O)NC1=O [Example 236, 5-(2,6-Dimethoxybenzylidene)thiazolidine-2,4-dione]
melting point: 241 to 242 °C

COc1cc(OCc2c(F)cccc2[N+](=O)[O-])cc(OC)c1C=C1SC(=O)NC1=O [Example 237, 5-[4-(2-Fluoro-6-nitrobenzyloxy)-2,6-dimethoxybenzylidene]thiazolidine-2,4-dione]
melting point: 255 to 256 °C

O=C1NC(=O)/C(=C/c2cc3ccccc3o2)S1 [Example 238, 5-Benzofuran-2-ylmethylenethiazolidine-2,4-dione]
melting point: 265 to 266 °C

CN(C)c1ccc(/C=C/C=C2\SC(=O)NC2=O)cc1 [Example 239, 5-[3-(4-Dimethylaminophenyl)allylidene]thiazolidine-2,4-dione]
melting point: 259 to 263 °C

CC(/C=C1\SC(=O)NC1=O)=C\c1ccccc1 [Example 240, 5-(2-Methyl-3-phenylallylidene)thiazolidine-2,4-dione]
melting point: 203 to 210 °C

O=C1NC(=O)/C(=C/C(Cl)=C/c2ccccc2)S1 [Example 241, 5-(2-Chloro-3-phenylallylidene)thiazolidine-2,4-dione]
melting point: 251 to 254 °C

O=C1NC(=O)/C(=C/c2cc3ccccc3[nH]c2=O)S1 [Example 242, 5-(2-Oxo-1,2-dihydroquinolin-3-ylmethylene)thiazolidine-2,4-dione]
melting point: 338 to 347 °C

O=C(O)COc1cccc(/C=C2\SC(=O)NC2=O)c1 [Example 461, [3-(2,4-Dioxothiazolidin-5-ylidenemethyl)phenoxy]acetic acid]
dimer ([2]; 5° predicted): (0.057) % formed/year | dimer ([2]; 15° C.): 0.33 % formed/year | dimer ([2]; 25° C.): 1.20 % formed/year | dimer ([2]; 30° C.): 2.34 % formed/year | dimer ([2]; 37° C.): 6.50 % formed/year | dimer ([2]; 45° C.): 23.4 % formed/year | hphil (hydrophilic derivatives, desamido-insulins) ([3]; 5° predicted): (0.287) % formed/year | hphob1 (hydrophobic derivatives 1) ([3]; 5° predicted): (0.153) % formed/year | hphob2 (hydrophobic derivatives 2, insulin dimers) ([3]; 5° predicted): (0.044) % formed/year | hphil (hydrophilic derivatives, desamido-insulins) ([3]; 15° C.): 1.14 % formed/year | hphob1 (hydrophobic derivatives 1) ([3]; 15° C.): 0.67 % formed/year | hphob2 (hydrophobic derivatives 2, insulin dimers) ([3]; 15° C.): 0.29 % formed/year | hphil (hydrophilic derivatives, desamido-insulins) ([3]; 25° C.): 2.86 % formed/year | hphob1 (hydrophobic derivatives 1) ([3]; 25° C.): 4.78 % formed/year | hphob2 (hydrophobic derivatives 2, insulin dimers) ([3]; 25° C.): 0.99 % formed/year | hphil (hydrophilic derivatives, desamido-insulins) ([3]; 30° C.): 5.12 % formed/year | hphob1 (hydrophobic derivatives 1) ([3]; 30° C.): 7.11 % formed/year | hphob2 (hydrophobic derivatives 2, insulin dimers) ([3]; 30° C.): 1.99 % formed/year | hphil (hydrophilic derivatives, desamido-insulins) ([3]; 37° C.): 11.2 % formed/year | hphob1 (hydrophobic derivatives 1) ([3]; 37° C.): 20.0 % formed/year | hphob2 (hydrophobic derivatives 2, insulin dimers) ([3]; 37° C.): 7.02 % formed/year | hphil (hydrophilic derivatives, desamido-insulins) ([3]; 45° C.): 29.9 % formed/year | hphob1 (hydrophobic derivatives 1) ([3]; 45° C.): 52.6 % formed/year | hphob2 (hydrophobic derivatives 2, insulin dimers) ([3]; 45° C.): 23.4 % formed/year

O=C(O)COc1ccc(/C=C2\SC(=O)NC2=O)c2ccccc12 [Example 476, [4-(2,4-Dioxothiazolidin-5-ylidenemethyl)naphthalen-1-yloxy]acetic acid]
Kd [1, 4]: 0.068 µM

c1cc(COc2ccc3ccccc3c2)cc(-c2nnn[nH]2)c1 [Example 572, 5-(3-(Naphthalen-2-yloxymethyl)-phenyl)-1H-tetrazole]
melting point: 200 to 202 °C

Fc1ccc(Cn2c3ccccc3c3cc(-c4nn[nH]n4)ccc32)c(F)c1 [Example 759, 9-(2,4-Difluorobenzyl)-3-(2H-tetrazol-5-yl)-9H-carbazole]
Kd [1, 4]: 0.023 µM

CN(C)c1ccc(/C=C2\SC(=O)NC2=O)cc1 [TZD, 5-(4-dimethylaminobenzylidene)thiazolidine-2,4-dione, reference compound]
Kd ([1]; measured separately, read-out: KTZD): 0.23 µM
